Data reported in US20210076677A1, “NOVEL PESTICIDAL COMBINATIONS” (priority 2017, published 2021).

Columns and labels:
[1] = tested on: Alternaria solani in tomato; test: Field trial, early blight control in tomato (Colby synergy); assay type: in vivo; details: 10 days after application, Mancozeb + Azoxystrobin 1750 g/ha, Chlorantriniprole 150 g/ha
Protocol: Studies were conducted to compare the efficacy of the combination of amide insecticides with fungicides selected from the various classes and to compare their observed efficacy with the ‘expected_ efficacy when amide insecticides and fungicides were used to treat fungal and insect pests. Any difference between the observed and ‘expected_ efficacy could be attributed to synergy between the two compounds in the control of fungal and insect pests. The expected efficacy of a combination of amide insecticides with fungicides was calculated using the well-established Colby method. […] An unexpected enhancement in efficacy of the combination is then determined by comparing the observed response of the combination to the expected (or predicted) response as calculated from the observed response of each individual component alone. If the observed response of the combination is greater than the expected (or predicted) response, or stated conversely, if the difference between the observed and expected response is greater than zero, then the combination is said to be synergistic or unexpectedly effective. (Colby, S. R., Weeds, 1967(15), p. 20-22) The Colby method requires only a single dose of each active applied alone and the mixture of both doses. The formula used to calculate the expected efficacy (EE) which was compared with the observed efficacy (OE) to determine the efficacy of the present invention is explained hereinbelow: […] The efficacy of the individual actives of the invention and their combinations were evaluated on various fungal and insect pests. The trial was carried out in Randomized Complete Block (RCB) method, all field trials were conducted using this method. Each trial was replicated three times and conducted under GEP guidelines. Application volumes were varied for each mixture. Such field trials were carried out at various locations so as to generate independent data, the locations were chosen randomly across India. […]

[2] = tested on: Helicoverpa armigera in tomato; test: Field trial, fruit borer control in tomato (Colby synergy); assay type: in vivo; details: 10 days after application, Mancozeb + Azoxystrobin 1750 g/ha, Chlorantriniprole 150 g/ha
Protocol: Studies were conducted to compare the efficacy of the combination of amide insecticides with fungicides selected from the various classes and to compare their observed efficacy with the ‘expected_ efficacy when amide insecticides and fungicides were used to treat fungal and insect pests. Any difference between the observed and ‘expected_ efficacy could be attributed to synergy between the two compounds in the control of fungal and insect pests. The expected efficacy of a combination of amide insecticides with fungicides was calculated using the well-established Colby method.
In the Colby method, the expected (or predicted) response of a combination of actives is calculated by taking the product of the observed response for each individual component of the combination when applied alone divided by 100 and subtracting this value from the sum of the observed response for each component when applied alone. An unexpected enhancement in efficacy of the combination is then determined by comparing the observed response of the combination to the expected (or predicted) response as calculated from the observed response of each individual component alone. If the observed response of the combination is greater than the expected (or predicted) response, or stated conversely, if the difference between the observed and expected response is greater than zero, then the combination is said to be synergistic or unexpectedly effective. (Colby, S. R., Weeds, 1967(15), p. 20-22) The Colby method requires only a single dose of each active applied alone and the mixture of both doses. […]
The efficacy of the individual actives of the invention and their combinations were evaluated on various fungal and insect pests. […]
Further field trials were carried out to test the synergy of the combination amide […] chlorantriniprole in combination with fungicides for the control of Helicoverpa armigera in tomato. […] The percentage efficacy was calculated after 10 days of applications and the results are recorded in the table below: […]

`CNC(=O)c1cc(Cl)cc(C)c1NC(=O)c1cc(Br)nn1-c1ncccc1Cl` [Chlorantriniprole, chlorantraniliprole] was tested, and the “% Disease control, Early Blight Control in tomato 10DAA, Actual” value (shortened to “% Disease control, Early Blight Control”) ([1]; first trial (columns c2/c3)) was 1.91%, the “% Disease control, Early Blight Control” value ([1]; second trial (columns c4/c5)) was 1.86% and the “% Disease control, Early Blight Control” value ([1]; third trial (columns c6/c7)) was 2.70%. The “% control of pest, Fruit Borer control in tomato 10DAA, Actual” value (“% control of pest, Fruit Borer control” for short) ([2]; first trial (columns c2/c3)) was 75.8%, the “% control of pest, Fruit Borer control” value ([2]; second trial (columns c4/c5)) was 86.4% and the “% control of pest, Fruit Borer control” value ([2]; third trial (columns c6/c7)) was 88.4%.
